From patent EP0908457B1, “3-(1,2-benzisothiazol- and isoxazol-5-Y1)-2,4(1H,3H)-pyrimidinedione or thione and 3-(1,2-benzisothiazol- and isoxazol-5-y1)-4(3H)-pyrimidinone or thione herbicidal agents” (BASF AKTIENGESELLSCHAFT, priority 1997, dated 1999)

Columns and labels:
[1] = tested on: Oryza sativa, (L.) Tebonnet; assay: Rice tolerance to post-transplant applications under flooded paddy conditions (Example 187), ORYSAT (Rice, Tebonnet); conditions: for ORYSAT: herbicidal effect rating 0-9, three to four weeks after treatment; as to herbicidal effect rating ORYSAT: meaning of each grade not given here
[2] = tested on: Monochoria vaginalis, Presl.; assay: Preemergence weed control under flooded paddy conditions, MOOVA (Monochoria); assay type: in vivo; conditions: flooded paddy; for MOOVA herbicidal effect rating / herbicidal effect rating, MOOVA: preemergence; for MOOVA: preemergence weeds, herbicidal effect rating 0-9, three to four weeks after treatment
Sagittaria pygmaea, L. = assay: Preemergence weed control under flooded paddy conditions, SAGPY (Arrowhead (Pygmaea)); assay type: in vivo; conditions: flooded paddy; for SAGPY herbicidal effect rating / herbicidal effect rating, SAGPY: preemergence; for SAGPY: preemergence weeds, herbicidal effect rating 0-9, three to four weeks after treatment
[3] = tested on: Cyperus serotinus, Rottb.; assay: Preemergence weed control under flooded paddy conditions, CYPSE (Flatsedge); assay type: in vivo; conditions: for CYPSE herbicidal effect rating / herbicidal effect rating, CYPSE: preemergence; for CYPSE: preemergence weeds, herbicidal effect rating 0-9, three to four weeks after treatment
[4] = tested on: Echinochloa oryzoides (Ard.) Fritsch.; assay: Preemergence weed control under flooded paddy conditions, ECHORC (Watergrass (Calif.)); assay type: in vivo; conditions: flooded paddy; for ECHORC herbicidal effect rating / herbicidal effect rating, ECHORC: preemergence; for ECHORC: preemergence weeds, herbicidal effect rating 0-9, three to four weeks after treatment
Cyperus iria = assay: Preemergence weed control under flooded paddy conditions, CYPIR (Rice Flatsedge); assay type: in vivo; conditions: flooded paddy; for CYPIR herbicidal effect rating / herbicidal effect rating, CYPIR: preemergence; for CYPIR: preemergence weeds, herbicidal effect rating 0-9, three to four weeks after treatment
[5] = Rate 0.0320 kg/ha, rated three to four weeks after treatment
[6] = Rate 0.0620 kg/ha, rated three to four weeks after treatment
[7] = Rate 0.1250 kg/ha, rated three to four weeks after treatment
[8] = Rate 0.2500 kg/ha, rated three to four weeks after treatment
[9] = Rate 0.0620 kg/ha, rated 3-4 weeks after treatment
[10] = Rate 0.1250 kg/ha, rated 3-4 weeks after treatment
[11] = Rate 0.2500 kg/ha, rated 3-4 weeks after treatment
[12] = Rate 0.5000 kg/ha, rated 3-4 weeks after treatment

Cn1c(C(F)(F)F)cc(=O)n(-c2ccc3snc(C=C(F)Br)c3c2)c1=O [Example 286, 2,4(1H,3H)-Pyrimidinedione, 3-[3-(2-bromo-2-fluorovinyl)-1,2-benzisothiazol-5-yl]-1-methyl-6-(trifluoromethyl)-]
9.0: MOOVA herbicidal effect rating [2, 5] | MOOVA herbicidal effect rating [2, 6] | MOOVA herbicidal effect rating [2, 7] | MOOVA herbicidal effect rating [2, 8] | CYPIR herbicidal effect rating (Cyperus iria; [8])
2.0: ORYSAT herbicidal effect rating [1, 8]
3.0: ECHORC herbicidal effect rating [4, 7] | CYPIR herbicidal effect rating (Cyperus iria; [5])
7.0: CYPIR herbicidal effect rating (Cyperus iria; [6]) | CYPIR herbicidal effect rating (Cyperus iria; [7])
1.0: ORYSAT herbicidal effect rating [1, 7]
8.0: ECHORC herbicidal effect rating [4, 8]
0.0: ORYSAT herbicidal effect rating [1, 5] | ORYSAT herbicidal effect rating [1, 6] | SAGPY herbicidal effect rating (Sagittaria pygmaea, L.; [5]) | SAGPY herbicidal effect rating (Sagittaria pygmaea, L.; [6]) | SAGPY herbicidal effect rating (Sagittaria pygmaea, L.; [7]) | SAGPY herbicidal effect rating (Sagittaria pygmaea, L.; [8]) | CYPSE herbicidal effect rating [3, 5] | CYPSE herbicidal effect rating [3, 6] | CYPSE herbicidal effect rating [3, 7] | CYPSE herbicidal effect rating [3, 8] | ECHORC herbicidal effect rating [4, 5] | ECHORC herbicidal effect rating [4, 6]

Cc1ccc(OCC(=O)O)c(-c2noc3cc(F)c(-n4c(=O)cc(C(F)(F)F)n(C)c4=O)cc23)c1 [Example 425, Acetic acid, {{2-{5-[3,6-dihydro-3-methyl-2,6-dioxo-4-(trifluoromethyl)-1(2H)-pyrimidinyl]-6-fluoro-1,2-benzisoxazol-3-yl}-p-tolyl}oxy}-]
7.0: ORYSAT ([1]; 0.1250 kg/ha) | MOOVA ([2]; 0.0620 kg/ha)
9.0: MOOVA ([2]; 0.1250 kg/ha) | MOOVA ([2]; 0.2500 kg/ha) | ECHORC ([4]; 0.0620 kg/ha) | ECHORC ([4]; 0.1250 kg/ha) | ECHORC ([4]; 0.2500 kg/ha) | CYPIR (Cyperus iria; 0.2500 kg/ha)
6.0: ORYSAT ([1]; 0.0620 kg/ha) | MOOVA ([2]; 0.0320 kg/ha) | ECHORC ([4]; 0.0320 kg/ha) | CYPIR (Cyperus iria; 0.1250 kg/ha)
3.0: SAGPY (Sagittaria pygmaea, L.; 0.1250 kg/ha) | CYPSE ([3]; 0.0620 kg/ha) | CYPSE ([3]; 0.1250 kg/ha) | CYPSE ([3]; 0.2500 kg/ha)
4.0: ORYSAT ([1]; 0.0320 kg/ha) | SAGPY (Sagittaria pygmaea, L.; 0.2500 kg/ha)
8.0: ORYSAT ([1]; 0.2500 kg/ha)
0.0: SAGPY (Sagittaria pygmaea, L.; 0.0320 kg/ha) | SAGPY (Sagittaria pygmaea, L.; 0.0620 kg/ha) | CYPSE ([3]; 0.0320 kg/ha) | CYPIR (Cyperus iria; 0.0320 kg/ha) | CYPIR (Cyperus iria; 0.0620 kg/ha)

Cn1c(C(F)(F)F)cc(=O)n(-c2ccc3snc(C(=O)NS(=O)(=O)c4ccc(Cl)cc4)c3c2)c1=O [Example 356, 1,2-Benzisothiazole-3-carboxamide, N-[(p-chlorophenyl)sulfonyl]-5-[3,6-dihydro-3-methyl-2,6-dioxo-4-(trifluoromethyl)-1(2H)-pyrimidinyl]-]
4.5: herbicidal effect rating ORYSAT [1, 7] | herbicidal effect rating, SAGPY (Sagittaria pygmaea, L.; [5]) | herbicidal effect rating, SAGPY (Sagittaria pygmaea, L.; [6])
7.5: herbicidal effect rating, MOOVA [2, 5]
5.5: herbicidal effect rating, SAGPY (Sagittaria pygmaea, L.; [7])
0.5: herbicidal effect rating ORYSAT [1, 5]
2.0: herbicidal effect rating ORYSAT [1, 8]
8.0: herbicidal effect rating, SAGPY (Sagittaria pygmaea, L.; [8])
9.0: herbicidal effect rating, MOOVA [2, 6] | herbicidal effect rating, MOOVA [2, 7] | herbicidal effect rating, MOOVA [2, 8] | herbicidal effect rating, ECHORC [4, 8] | herbicidal effect rating, CYPIR (Cyperus iria; [6]) | herbicidal effect rating, CYPIR (Cyperus iria; [7]) | herbicidal effect rating, CYPIR (Cyperus iria; [8])
6.5: herbicidal effect rating, CYPSE [3, 8] | herbicidal effect rating, ECHORC [4, 7] | herbicidal effect rating, CYPIR (Cyperus iria; [5])
5.0: herbicidal effect rating, CYPSE [3, 7] | herbicidal effect rating, ECHORC [4, 6]
0.0: herbicidal effect rating, CYPSE [3, 5] | herbicidal effect rating, CYPSE [3, 6]
2.5: herbicidal effect rating ORYSAT [1, 6]
3.5: herbicidal effect rating, ECHORC [4, 5]

CC(=O)/C=C/c1nsc2ccc(-n3c(=O)cc(C(F)(F)F)n(C)c3=O)cc12 [Example 285, 2,4(1H,3H)-Pyrimidinedione, 1-methyl-3-[3-(3-oxo-1-butenyl)-1,2-benzisothiazol-5-yl]-6-(trifluoromethyl)-, (E)-]
4.0: MOOVA herbicidal effect rating [2, 5]
0.0: SAGPY herbicidal effect rating (Sagittaria pygmaea, L.; [5]) | SAGPY herbicidal effect rating (Sagittaria pygmaea, L.; [6]) | SAGPY herbicidal effect rating (Sagittaria pygmaea, L.; [7]) | CYPSE herbicidal effect rating [3, 5] | CYPSE herbicidal effect rating [3, 6] | CYPSE herbicidal effect rating [3, 7] | CYPSE herbicidal effect rating [3, 8]
7.0: ORYSAT herbicidal effect rating [1, 6] | ORYSAT herbicidal effect rating [1, 7] | ORYSAT herbicidal effect rating [1, 8] | ECHORC herbicidal effect rating [4, 6] | ECHORC herbicidal effect rating [4, 7] | ECHORC herbicidal effect rating [4, 8]
5.0: CYPIR herbicidal effect rating (Cyperus iria; [5])
3.0: ORYSAT herbicidal effect rating [1, 5] | SAGPY herbicidal effect rating (Sagittaria pygmaea, L.; [8]) | ECHORC herbicidal effect rating [4, 5]
9.0: MOOVA herbicidal effect rating [2, 6] | MOOVA herbicidal effect rating [2, 7] | MOOVA herbicidal effect rating [2, 8] | CYPIR herbicidal effect rating (Cyperus iria; [6]) | CYPIR herbicidal effect rating (Cyperus iria; [7]) | CYPIR herbicidal effect rating (Cyperus iria; [8])

CCOC(=O)c1ccc(NC(=O)C(C)Oc2ccc(C)cc2-c2nsc3ccc(-n4c(=O)cc(C(F)(F)F)n(C)c4=O)cc23)cc1 (stereo not drawn) [Example 541, Benzoic acid, p-{2-{{2-{5-[3,6-dihydro-3-methyl-2,6-dioxo-4-(trifluoromethyl)-1(2H)-pyrimidinyl]-1,2-benzisothiazol-3-yl}-p-tolyl}oxy}propionamido}-, ethyl ester]
6.0: herbicidal effect rating, ECHORC [4, 12] | herbicidal effect rating, CYPIR (Cyperus iria; [11])
2.0: herbicidal effect rating ORYSAT [1, 12]
4.0: herbicidal effect rating, ECHORC [4, 11] | herbicidal effect rating, CYPIR (Cyperus iria; [10])
3.0: herbicidal effect rating, CYPIR (Cyperus iria; [9])
9.0: herbicidal effect rating, MOOVA [2, 9] | herbicidal effect rating, MOOVA [2, 10] | herbicidal effect rating, MOOVA [2, 11] | herbicidal effect rating, MOOVA [2, 12] | herbicidal effect rating, CYPIR (Cyperus iria; [12])
0.0: herbicidal effect rating ORYSAT [1, 9] | herbicidal effect rating ORYSAT [1, 10] | herbicidal effect rating ORYSAT [1, 11] | herbicidal effect rating, SAGPY (Sagittaria pygmaea, L.; [9]) | herbicidal effect rating, SAGPY (Sagittaria pygmaea, L.; [10]) | herbicidal effect rating, SAGPY (Sagittaria pygmaea, L.; [11]) | herbicidal effect rating, SAGPY (Sagittaria pygmaea, L.; [12]) | herbicidal effect rating, CYPSE [3, 9] | herbicidal effect rating, CYPSE [3, 10] | herbicidal effect rating, CYPSE [3, 11] | herbicidal effect rating, CYPSE [3, 12] | herbicidal effect rating, ECHORC [4, 9] | herbicidal effect rating, ECHORC [4, 10]
